Test results from US5451572A (Genentech, Inc., priority 1993, dated 1995).

What was measured:
[1] = Reverse phase HPLC stability of liquid relaxin formulations; details: in Milli-Q water at 5° C., reference material
Procedure: All buffers were made up to isotonicity (0.154 μ) with the addition of NaCl. […] The resulting 135 100-μL-microvials and 90 1.5-ml-vials were placed on stability tests at 5, 25 and 40° C. Samples were assayed at 0, 7, 21, and 30 days by reverse phase HPLC, ELISA, and cyclic AMP assays. In addition to these assays, the samples were also assayed by near UV circular dichroism (near UV CD) and analytical ultracentrifugation (UC) on days 0 and 30.
The resulting nine samples were each sterile filtered, divided into three equal volumes, and loaded into sterile 300 μL glass microvials. The resulting 27 vials containing about 9 mg were placed on stability testing at 5, 25, and 40° C. for up to 40 days. Samples were assayed by an ELISA assay and a C4 reverse-phase HPLC assay on days 0, 7, 14, 28, and 40. The remaining 3 mg of relaxin was kept in Milli-Q water at 5° C. and used as the reference material. […] These observations were repeated on reference samples used in subsequent stability studies. […]
Study 1: The degradation of relaxin as a function of time was monitored by reverse phase HPLC. […] The fraction of the main peak remaining was computed from triplicate samples (when available), and first-order plots of the degradation kinetics of the main HPLG peak for the five formulations shown in Table I (ranging from 3.0 to 7.5) were determined. […]

[2] = system: cervix; details: infusion of 3000 units in the cervical os; Perezgrovas and Anderson (1982); cited from earlier work
[3] = system: cervix; details: 2-mg dose in methylcellulose gel; MacLennan et al. (1981); cited from earlier work
[4] = system: rabbit cervix; assay: Efficacy on the ripening of the rabbit cervix; assay type: in vivo; details: initial study, 300 μg/ml topical formulation, 0.5 ml intravaginal, eighteen hours
Procedure: Mature pregnant female New Zealand rabbits weighing 4.5 to 6.0 kg were studied. […] Both hormones were applied intravaginally by means of a syringe and a catheter in a volume of 0.5 ml. Control animals received the vehicle alone. After 16-18 hours, the animals were sacrificed using a lethal dose of pentobarbital. […] Paraffin sections were cut and stained with hematoxylin/eosin and alcian blue PAS. Sections were evaluated for general morphology, and specifically for the degree of separation of muscular tissue and collagen fibrils in the submucosa and for the presence of characteristic PAS positive giant cells, which are multinucleate cells of macrophage origin that normally infiltrate the cervix during labor. The measurement of giant cells is accomplished using the procedure described by MacLennan et al., Am J. Obstet.

Compound	stability by reverse phase HPLC [1]	time to increased dilatation of the cervix [2] [h]	cervical score [3]	morphology of the pregnant cervix (ripening) [4]
CC[C@H](C)[C@@H]1NC(=O)[C@H](C)NC(=O)[C@H]([C@@H](C)CC)NC(=O)[C@H](CCC(N)=O)NC(=O)[C@H](C)NC(=O)[C@H](CCCNC(=N)N)NC(=O)[C@H](C(C)C)NC(=O)[C@H](CC(C)C)NC(=O)[C@H](CCC(=O)O)NC(=O)[C@H](CCCNC(=N)N)NC(=O)CNC(=O)[C@@H](NC(=O)[C@H](CC(C)C)NC(=O)[C@H](CCCCN)NC(=O)[C@@H](NC(=O)[C@@H](NC(=O)[C@H](CCC(=O)O)NC(=O)[C@H](CCC(=O)O)NC(=O)[C@H](CCSC)NC(=O)[C@H](Cc2c[nH]c3ccccc23)NC(=O)[C@H](CO)NC(=O)[C@@H](N)CC(=O)O)C(C)C)[C@@H](C)CC)CSSC[C@@H]2NC(=O)[C@@H](NC(=O)[C@H](CCCCN)NC(=O)[C@H](CC(N)=O)NC(=O)[C@H](C)NC(=O)[C@H](CC(C)C)NC(=O)[C@H](C)NC(=O)[C@H](CO)NC(=O)[C@H](Cc3ccc(O)cc3)NC(=O)[C@H](CC(C)C)NC(=O)[C@@H]3CCC(=O)N3)CSSC[C@H](NC(=O)CNC(=O)[C@H](C(C)C)NC(=O)[C@H](Cc3c[nH]cn3)NC2=O)C(=O)N[C@@H]([C@@H](C)O)C(=O)N[C@@H](CCCCN)C(=O)N[C@@H](CCCNC(=N)N)C(=O)N[C@@H](CO)C(=O)N[C@@H](CC(C)C)C(=O)N[C@@H](C)C(=O)N[C@@H](CCCNC(=N)N)C(=O)N[C@@H](Cc2ccccc2)C(=O)N[C@H](C(=O)O)CSSC[C@@H](C(=O)NCC(=O)N[C@@H](CCSC)C(=O)N[C@@H](CO)C(=O)N[C@H](C(=O)N[C@@H](Cc2c[nH]c3ccccc23)C(=O)N[C@@H](CO)C(=O)N[C@@H](CCCCN)C(=O)N[C@@H](CCCNC(=N)N)C(=O)N[C@@H](CO)C(=O)N[C@@H](CC(C)C)C(=O)O)[C@@H](C)O)NC1=O [long relaxin]	stable by reverse phase HPLC for at least five months	–	–	–
porcine relaxin	–	≤ 8	improve the cervical score	induce changes in the morphology of the pregnant cervix consistent with ripening
